Experimental data reported in PubChem BioAssay (NCI).
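Where inhibition never reached the appropriate level, the endpoint shown equals the highest concentration tested. Otherwise, values were interpolated linearly from a five-concentration, 48-hour dose response in 96-well plates. Here, GI50 denotes the concentration required for 50% inhibition of growth. Definition used: TGI = concentration required for complete inhibition of growth.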

Columns and labels:
Experiment in all cases: DTP human tumour cell line panel, 48 h; in the data active means GI50 below about 0.43 µM; inactive means the rest
[1] = system: HOP-92 NSCLC
[2] = system: SF-268 CNS
[3] = system: PC-3 prostate
[4] = system: LOX IMVI melanoma
[5] = system: T-47D breast
[6] = system: A549 NSCLC
[7] = system: CCRF-CEM leukemia
[8] = system: NCI-H226 lung
[9] = system: RPMI-8226 leukemia
[10] = system: SK-MEL-28 melanoma
[11] = system: TK-10 renal
[12] = system: A498 renal
[13] = system: NCI-H522 lung
[14] = system: 786-0 renal
[15] = system: UACC-62 melanoma
[16] = system: OVCAR-3 ovarian
[17] = system: SK-MEL-2 melanoma
[18] = system: SR leukemia
[19] = system: SNB-19 CNS
[20] = system: KM12 colon
[21] = system: MCF7 breast
[22] = system: OVCAR-8 ovarian
[23] = system: HOP-62 NSCLC
[24] = system: SK-MEL-5 melanoma
[25] = system: MDA-MB-231 breast
[26] = system: U251 CNS
[27] = system: SNB-75 CNS
[28] = system: HL-60(TB) leukemia
[29] = system: SN12C renal
[30] = system: COLO 205 colon
[31] = system: NCI-H23 lung
[32] = system: HCC-2998 colon
[33] = system: MALME-3M melanoma
[34] = system: HCT-116 colon
[35] = system: SF-295 CNS
[36] = system: NCI/ADR-RES ovarian
[37] = system: UO-31 renal
[38] = system: ACHN renal
[39] = system: RXF 393 renal
[40] = system: IGROV1 ovarian
[41] = system: HCT-15 colon
[42] = system: CAKI-1 renal
[43] = system: MOLT-4 leukemia
[44] = system: OVCAR-5 ovarian
[45] = system: HS 578T breast
[46] = system: HT29 colon
[47] = system: OVCAR-4 ovarian
[48] = system: SF-539 CNS
[49] = system: NCI-H460 lung
[50] = system: DU-145 prostate
[51] = system: SW-620 colon
[52] = system: BT-549 breast
[53] = system: MDA-MB-435
[54] = system: M14 melanoma
[55] = system: UACC-257 melanoma
[56] = system: K-562 leukemia
[57] = system: SK-OV-3 ovarian
[58] = system: EKVX NSCLC

Cn1c(=O)c(Oc2ccccc2F)cc2cnc(NC3CCOCC3)nc21
> 25 µM: TGI [2] | TGI [3] | TGI [4] | TGI [5] | TGI [6] | TGI [7] | TGI [8] | TGI [9] | TGI [10] | TGI [11] | TGI [12] | TGI [13] | TGI [14] | TGI [15] | TGI [16] | TGI [17] | TGI [18] | TGI [19] | TGI [20] | TGI [21] | TGI [22] | TGI [23] | TGI [24] | TGI [25] | TGI [26] | TGI [27] | TGI [28] | TGI [29] | TGI [30] | TGI [31] | TGI [32] | TGI [33] | TGI [34] | TGI [35] | TGI [36] | TGI [37] | TGI [38] | TGI [39] | TGI [40] | TGI [41] | TGI [42] | TGI [43] | TGI [44] | TGI [45] | TGI [46] | TGI [47] | TGI [48] | TGI [49] | TGI [50] | TGI [51] | TGI [52] | TGI [53] | TGI [54] | TGI [55] | TGI [56] | TGI [57]
inactive: GI50 [1] 1.25 µM | GI50 [2] > 25 µM | GI50 [3] > 25 µM | GI50 [4] > 25 µM | GI50 [5] > 25 µM | GI50 [6] > 25 µM | GI50 [7] > 25 µM | GI50 [8] > 25 µM | GI50 [9] > 25 µM | GI50 [10] > 25 µM | GI50 [11] > 25 µM | GI50 [12] > 14.7 µM | GI50 [13] > 25 µM | GI50 [14] > 25 µM | GI50 [15] > 25 µM | GI50 [16] > 25 µM | GI50 [17] > 25 µM | GI50 [18] > 25 µM | GI50 [19] > 25 µM | GI50 [20] > 25 µM | GI50 [21] > 25 µM | GI50 [22] > 25 µM | GI50 [23] > 25 µM | GI50 [24] > 25 µM | GI50 [25] > 25 µM | GI50 [26] > 25 µM | GI50 [27] > 19.8 µM | GI50 [28] > 25 µM | GI50 [29] > 25 µM | GI50 [30] > 25 µM | GI50 [31] > 25 µM | GI50 [32] > 25 µM | GI50 [33] > 25 µM | GI50 [34] > 25 µM | GI50 [35] > 25 µM | GI50 [36] > 25 µM | GI50 [37] > 14.4 µM | GI50 [38] > 25 µM | GI50 [39] > 25 µM | GI50 [40] > 25 µM | GI50 [41] > 25 µM | GI50 [42] > 25 µM | GI50 [43] > 25 µM | GI50 [44] > 25 µM | GI50 [45] > 25 µM | GI50 [46] > 25 µM | GI50 [47] > 25 µM | GI50 [48] > 25 µM | GI50 [49] > 25 µM | GI50 [50] > 25 µM | GI50 [51] > 25 µM | GI50 [52] > 25 µM | GI50 [53] > 25 µM | GI50 [54] > 25 µM | GI50 [55] > 25 µM | GI50 [56] > 25 µM | GI50 [57] > 25 µM
22.8 µM: TGI [1]

Nc1ccc(S(=O)(=O)C23CC4CC(CC(C4)C2)C3)cc1
> 100 µM: TGI [2] | TGI [3] | TGI [4] | TGI [5] | TGI [6] | TGI [7] | TGI [8] | TGI [9] | TGI [10] | TGI [11] | TGI [12] | TGI [13] | TGI [14] | TGI [15] | TGI [16] | TGI [17] | TGI [18] | TGI [19] | TGI [20] | TGI [21] | TGI [22] | TGI [23] | TGI [24] | TGI [25] | TGI [26] | TGI [28] | TGI [29] | TGI [30] | TGI [31] | TGI [32] | TGI [33] | TGI [34] | TGI [35] | TGI [36] | TGI [37] | TGI [38] | TGI [40] | TGI [41] | TGI [42] | TGI [44] | TGI [58] | TGI [45] | TGI [46] | TGI [48] | TGI [49] | TGI [50] | TGI [51] | TGI [52] | TGI [53] | TGI [54] | TGI [55] | TGI [56] | TGI [57]
79.4 µM: TGI [39]
